Results reported in patent publication US12122761B2, “2-azaspiro[3.4]octane derivatives as M4 agonists” (NOVARTIS AG, priority 2019, dated 2024).
pEC50: −log10 of the molar value.

Legend:
Format in all cases: cell-based
[1] = biological target: T1, human cloned CHRM5 receptor (M5_CHO) (Homo sapiens, UniProt P08912); assay: CHRM5 Ca++ Flux Assay (agonist mode, FDSS 7000EX); conditions: for M5 FDSS PA / Emax: Percent Activity measured to EC100 of Carbachol; for pEC50: agonist mode, geometric mean if tested more than once, read-out: M5 FDSS EC50; for Emax: read-out: M5 FDSS PA
T1 construct: expressed in transfected cells; host or cells: CHO (M5_CHO)
T1 sequence (P08912 1-532): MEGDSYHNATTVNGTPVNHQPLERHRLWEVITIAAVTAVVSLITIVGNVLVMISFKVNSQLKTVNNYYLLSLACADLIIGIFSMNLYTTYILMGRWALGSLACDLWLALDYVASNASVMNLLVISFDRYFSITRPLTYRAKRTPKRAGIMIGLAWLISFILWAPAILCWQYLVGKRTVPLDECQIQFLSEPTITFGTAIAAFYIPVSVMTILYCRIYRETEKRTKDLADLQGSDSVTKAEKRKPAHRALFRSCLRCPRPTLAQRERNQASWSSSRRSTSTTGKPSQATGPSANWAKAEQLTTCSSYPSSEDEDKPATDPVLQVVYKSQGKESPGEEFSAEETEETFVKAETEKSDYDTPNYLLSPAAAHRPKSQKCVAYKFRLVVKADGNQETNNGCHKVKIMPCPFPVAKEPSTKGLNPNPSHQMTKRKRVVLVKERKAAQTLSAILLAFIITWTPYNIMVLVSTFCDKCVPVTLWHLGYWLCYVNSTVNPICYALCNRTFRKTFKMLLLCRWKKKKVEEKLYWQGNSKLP
How it was run: (§1)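 Agonist responses are measured as calcium mobilization in CHO-K1 cells expressing human M3 or M5, tested over an 11-point dose range in triplicate. Percent activity is normalised to carbachol at EC100.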

[2] = biological target: T2, human cloned CHRM3 receptor (M3_CHO cells) (Homo sapiens, UniProt P20309); assay: CHRM3 Ca++ Flux Assay (agonist mode, FDSS 7000EX); conditions: for M3 FDSS PA / Emax: Percent Activity measured to EC100 of Carbachol; for pEC50: agonist mode, geometric mean if tested more than once, read-out: M3 FDSS EC50; for Emax: read-out: M3 FDSS PA
T2 construct: expressed in transfected cells; host or cells: CHO-K1
T2 sequence (P20309 whole entry): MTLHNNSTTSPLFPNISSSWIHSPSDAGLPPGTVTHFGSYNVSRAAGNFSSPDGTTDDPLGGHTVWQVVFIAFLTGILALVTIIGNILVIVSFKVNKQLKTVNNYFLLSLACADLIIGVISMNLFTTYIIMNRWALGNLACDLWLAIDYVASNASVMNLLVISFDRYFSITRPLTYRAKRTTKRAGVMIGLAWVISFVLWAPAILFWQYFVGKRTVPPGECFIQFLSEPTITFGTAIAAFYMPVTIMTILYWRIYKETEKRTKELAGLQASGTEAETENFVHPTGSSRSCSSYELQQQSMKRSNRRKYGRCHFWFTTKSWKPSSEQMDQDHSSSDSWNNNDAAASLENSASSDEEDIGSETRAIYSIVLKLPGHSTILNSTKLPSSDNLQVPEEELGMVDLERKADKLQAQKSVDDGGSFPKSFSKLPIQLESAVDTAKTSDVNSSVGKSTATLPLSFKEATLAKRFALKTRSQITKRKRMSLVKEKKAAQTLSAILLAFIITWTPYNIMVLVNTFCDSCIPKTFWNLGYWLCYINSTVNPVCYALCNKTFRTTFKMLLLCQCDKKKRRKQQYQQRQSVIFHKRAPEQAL
How it was run: as §1

[3] = biological target: T3, Cloned human M1 receptor (CHRM1) stably expressed in HEK293 cells (Homo sapiens, UniProt P11229); assay: CHRM1 Ca++ Flux Assay (agonist mode, FDSS 7000EX); conditions: for M1 FDSS PA: Percent Activity; for pEC50: geometric mean if tested more than once; for Emax: HEK293, Percent Activity, read-out: M1 FDSS PA
T3 construct: expressed in transfected cells; host or cells: HEK293
T3 sequence (P11229 1-460): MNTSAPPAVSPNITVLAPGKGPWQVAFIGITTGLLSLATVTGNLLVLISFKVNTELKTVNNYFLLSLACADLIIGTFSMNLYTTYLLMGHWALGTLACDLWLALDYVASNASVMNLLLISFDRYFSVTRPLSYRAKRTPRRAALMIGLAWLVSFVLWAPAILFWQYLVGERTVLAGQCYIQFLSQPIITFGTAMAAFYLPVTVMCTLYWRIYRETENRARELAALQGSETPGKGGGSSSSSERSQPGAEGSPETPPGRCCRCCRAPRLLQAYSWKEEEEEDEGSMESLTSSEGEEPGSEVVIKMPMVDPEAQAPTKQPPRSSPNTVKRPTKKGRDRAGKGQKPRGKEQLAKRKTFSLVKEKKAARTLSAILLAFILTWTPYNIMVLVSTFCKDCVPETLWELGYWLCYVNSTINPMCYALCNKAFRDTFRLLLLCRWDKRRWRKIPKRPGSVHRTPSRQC
How it was run: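 Compounds tested as agonists at 11 concentrations in triplicate, with calcium traces captured over 3 minutes. Cells were HEK293 with stable human CHRM1 expression, plated overnight at 25K/well and loaded with calcium dye. Responses normalized to carbachol EC100 and fitted by four-parameter nonlinear regression.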

Row | M5 FDSS PA [1] [%] | pEC50 [1] | M3 FDSS PA [2] [%] | pEC50 [2] | M1 FDSS PA [3] [%] | pEC50 [3] | Emax [1] [%] | Emax [2] [%] | Emax [3] [%] | SMILES
1 | 0 | < 4.60 | 0 | < 4.60 | 76 | 7.10 |  |  |  | Fc1ccc(C2CCOCC2)c(C2CCN([C@@H]3CCC4(C3)CN(c3cncnc3)C4)CC2)c1 (single isomer, unassigned) [Example 10C, (R)-6-(4-(5-fluoro-2-(tetrahydro-2H-pyran-4-yl)phenyl)piperidin-1-yl)-2-(pyrimidin-5-yl)-2-azaspiro[3.4]octane or (S)-6-(4-(5-fluoro-2-(tetrahydro-2H-pyran-4-yl)phenyl)piperidin-1-yl)-2-(pyrimidin-5-yl)-2-azaspiro[3.4]octane]
2 | 0 | < 4.60 | 0 | < 4.60 | 0 | < 4.60 |  |  |  | COc1ccccc1C1CCN([C@H]2CCC3(C2)CN(c2ncco2)C3)CC1 (single isomer, unassigned) [Example 10I, S)-2-(6-(4-(2-methoxyphenyl)piperidin-1-yl)-2-azaspiro[3.4]octan-2-yl)oxazole or (R)-2-(6-(4-(2-methoxyphenyl)piperidin-1-yl)-2-azaspiro[3.4]octan-2-yl)oxazole]
3 | 0 | < 4.60 | 0 | < 4.60 | 0 | < 4.60 |  |  |  | O=C(N1CC2(CC[C@@H](N3CCC(c4ccccc4C4(O)CCOCC4)CC3)C2)C1)C1(F)CC1 (single isomer, unassigned) [Example 9H, (R)-(1-fluorocyclopropyl)(6-(4-(2-(4-hydroxytetrahydro-2H-pyran-4-yl)phenyl)piperidin-1-yl)-2-azaspiro[3.4]octan-2-yl)methanone or (S)-(1-fluorocyclopropyl)(6-(4-(2-(4-hydroxytetrahydro-2H-pyran-4-yl)phenyl)piperidin-1-yl)-2-azaspiro[3.4]octan-2-yl)methanone]
4 | 0 | < 4.60 | 0 | < 4.60 | 77 | 7.31 |  |  |  | FC(F)(F)Oc1ccccc1C1CCN([C@@H]2CCC3(C2)CN(c2nncs2)C3)CC1 (single isomer, unassigned) [Example 10M, (R)-2-(6-(4-(2-(trifluoromethoxy)phenyl)piperidin-1-yl)-2-azaspiro[3.4]octan-2-yl)-1,3,4-thiadiazole or (S)-2-(6-(4-(2-(trifluoromethoxy)phenyl)piperidin-1-yl)-2-azaspiro[3.4]octan-2-yl)-1,3,4-thiadiazole]

The next lines start with the molecule.

Row | SMILES | M5 FDSS PA [1] [%] | pEC50 [1] | M3 FDSS PA [2] [%] | pEC50 [2] | M1 FDSS PA [3] [%] | pEC50 [3] | Emax [1] [%] | Emax [2] [%] | Emax [3] [%]
5 | Cc1nnc(COc2ccccc2C2CCN([C@@H]3CCC4(C3)CN(C(=O)C3(F)CC3)C4)CC2)o1 (single isomer, unassigned) [Example 7Y, (R)-(1-fluorocyclopropyl)(6-(4-(2-((5-methyl-1,3,4-oxadiazol-2-yl)methoxy)phenyl)piperidin-1-yl)-2-azaspiro[3.4]octan-2-yl)methanone or (S)-(1-fluorocyclopropyl)(6-(4-(2-((5-methyl-1,3,4-oxadiazol-2-yl)methoxy)phenyl)piperidin-1-yl)-2-azaspiro[3.4]octan-2-yl)methanone] | 0 | < 4.60 | 0 | < 4.60 | 67 | 6.61 |  |  | 
6 | COc1ccccc1C1CCN([C@@H]2CCC3(C2)CN(c2cccnc2)C3)CC1 [Example 5K, (R)-6-(4-(2-methoxyphenyl)piperidin-1-yl)-2-(pyridin-3-yl)-2-azaspiro[3.4]octane] |  | < 4.60 |  | < 4.60 |  | 6.55 | 0 | 0 | 54
7 | COc1ccccc1C1CCN([C@@H]2CCC3(C2)CN(c2cc(Cl)nnc2Cl)C3)CC1 [Example 5R, (R)-2-(3,6-dichloropyridazin-4-yl)-6-(4-(2-methoxyphenyl)piperidin-1-yl)-2-azaspiro[3.4]octane] |  | < 4.60 |  | < 4.60 |  | 5.69 | 1 | 0 | 41
